In patent publication US20240158446A1, “CYCLIC COMPOUND HAVING SELECTIVE INHIBITORY ACTION ON KRAS OVER HRAS AND NRAS” (CHUGAI SEIYAKU KABUSHIKI KAISHA, priority 2021, published 2024):
*1 amine or outer side, *2 acyl side, *3 side chain or, on linkers, in order; H or OH if unused. Where a SMILES comes first, the peptide text is derived from it. Bridges are numbered along the chain shown (N, C = ends). [ ]: non-standard residue; d: D form. The star is where a group is joined. X47 = CC(C)(C)CCN([C@@H](Cc1ccc(C(F)(F)F)cc1)C(=O)[*:2])[*:1]; hPhe(3-Cl-4-CF3) = N[C@@H](CCc1ccc(C(F)(F)F)c(Cl)c1)C(=O)O; NPrPhe(4-CF3) = CCCN[C@@H](Cc1ccc(C(F)(F)F)cc1)C(=O)O; X46 = CCCCN([C@@H](Cc1ccc(C)cc1)C(=O)[*:2])[*:1]; 3Oxa8azabicyclo(3.2.1)octane = C1CC2COCC1N2*; NEtPhe(4-Me) = CCN[C@@H](Cc1ccc(C)cc1)C(=O)O; NMeGly(cPent) = CN[C@H](C(=O)O)C1CCCC1; Hyp = O=C(O)[C@@H]1C[C@@H](O)CN1; NMeD = CN[C@@H](CC(=O)O)C(=O)O; NMeL = CN[C@@H](CC(C)C)C(=O)O; Morpholide = C1CN(*)CCO1; NMeA = CN[C@@H](C)C(=O)O; Ac5c = NC1(C(=O)O)CCCC1; Aze = O=C(O)[C@@H]1CCN1; X51 = C1CCC(*)OC1; Sar = CNCC(=O)O

Tests used:
[1] = biological target: GDP-bound NRAS wild-type protein (Homo sapiens, UniProt P01111); test: Binding to NRAS by surface plasmon resonance (SPR), Single Cycle Kinetics; conditions: for NRAS/KRAS (ratio of KD value for NRAS to KD value for KRAS) / NRAS/KRAS (ratio of KD value with respect to NRAS to KD value with respect to KRAS): SPR, GDP-bound NRAS wild-type protein vs GDP-bound KRAS wild-type protein
Sequence of GDP-bound NRAS wild-type protein (P01111 whole entry): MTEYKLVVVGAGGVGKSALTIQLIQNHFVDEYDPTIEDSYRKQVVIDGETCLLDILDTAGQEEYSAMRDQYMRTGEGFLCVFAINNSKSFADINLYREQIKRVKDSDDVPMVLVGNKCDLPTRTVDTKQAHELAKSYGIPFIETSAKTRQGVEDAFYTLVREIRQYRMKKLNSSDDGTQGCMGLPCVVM

[2] = biological target: GDP-bound HRAS wild-type protein (Homo sapiens, UniProt P01112); test: Binding to HRAS by surface plasmon resonance (SPR), Single Cycle Kinetics; conditions: for HRAS/KRAS (ratio of KD value for HRAS to KD value for KRAS) / HRAS/KRAS (ratio of KD value with respect to HRAS to KD value with respect to KRAS): SPR, GDP-bound HRAS wild-type protein vs GDP-bound KRAS wild-type protein
Sequence of GDP-bound HRAS wild-type protein (P01112 whole entry): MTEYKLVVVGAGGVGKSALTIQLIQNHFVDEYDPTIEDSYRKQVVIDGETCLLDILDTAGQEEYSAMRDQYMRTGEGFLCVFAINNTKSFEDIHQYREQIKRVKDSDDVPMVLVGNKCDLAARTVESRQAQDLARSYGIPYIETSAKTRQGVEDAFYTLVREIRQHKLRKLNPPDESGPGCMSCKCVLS

| Structure (SMILES) | NRAS/KRAS (ratio of KD value for NRAS to KD value for KRAS) [1] | HRAS/KRAS (ratio of KD value for HRAS to KD value for KRAS) [2] | also measured |
| --- | --- | --- | --- |
| CCCN1C(=O)[C@@H]2CCN2C(=O)[C@H](C)N(C)C(=O)[C@H]([C@@H](C)CC)NC(=O)[C@H](CC(C)C)N(C)C(=O)C[C@@H](C(=O)N2CCOCC2)N(C)C(=O)[C@H](C2CCCC2)N(C)C(=O)C2(CCCC2)NC(=O)[C@@H]2C[C@H](O)CN2C(=O)[C@H](CCc2ccc(C(F)(F)F)c(Cl)c2)NC(=O)CN(C)C(=O)[C@@H]1Cc1ccc(C(F)(F)F)cc1 (stereo in doubt) [PP0238] | C (A compound having a KD ratio of 0.1 or more and less than 3 is denoted as C) | C (A compound having a KD ratio of 0.1 or more and less than 3 is denoted as C) |  |
| CC[C@H](C)[C@@H]1NC(=O)[C@H](CC(C)C)N(C)C(=O)C[C@@H](C(=O)N2CCOCC2)N(C)C(=O)[C@H](C2CCCC2)N(C)C(=O)C2(CCCC2)NC(=O)[C@@H]2CCCN2C(=O)[C@H](CCc2ccc(C(F)(F)F)c(Cl)c2)NC(=O)CN(C)C(=O)[C@H](Cc2ccc(C(F)(F)F)cc2)N2CCCCC[C@@H](C2=O)N(C)C(=O)CN(C)C1=O (stereo in doubt) [PP0319] | B (a compound having 3 or more and less than 10 is denoted as B) | B (a compound having 3 or more and less than 10 is denoted as B) |  |
| CCCN1C(=O)CN(C)C(=O)CN(C)C(=O)[C@H]([C@@H](C)CC)NC(=O)[C@@H]2CCCCCCC[C@@](C)(NC(=O)[C@@H]3C[C@@H](OCC)CN3C(=O)[C@H](CCc3cc(F)c(C(F)(F)F)c(F)c3)NC(=O)CN(C)C(=O)[C@@H]1Cc1ccc(C(F)(F)F)cc1)C(=O)N(C)[C@@H](C1CCCC1)C(=O)N(C)[C@H](C(=O)N1CCOCC1)CC(=O)N2C (stereo in doubt) [PP0898] | B (a compound having 3 or more and less than 10 is denoted as B) | B (a compound having 3 or more and less than 10 is denoted as B) |  |
| CCCN1C(=O)CN(C)C(=O)CN(C)C(=O)[C@H]([C@@H](C)CC)NC(=O)[C@@H]2COCC=CC[C@@](C)(NC(=O)[C@@H]3C[C@@H](OCC)CN3C(=O)[C@H](CCc3cc(F)c(C(F)(F)F)c(F)c3)NC(=O)CN(C)C(=O)[C@@H]1Cc1ccc(C(F)(F)F)cc1)C(=O)N(C)[C@@H](C1CCCC1)C(=O)N(C)[C@H](C(=O)N1CCOCC1)CC(=O)N2C (stereo in doubt) [PP0903] | B (a compound having 3 or more and less than 10 is denoted as B) | C (A compound having a KD ratio of 0.1 or more and less than 3 is denoted as C) |  |
| CC[C@H](C)[C@@H]1NC(=O)[C@H](CC(C)C)N(C)C(=O)C[C@@H](C(=O)N2CCOCC2)N(C)C(=O)[C@H](C2CCCC2)N(C)C(=O)C2(CCC2)NC(=O)[C@@H]2C[C@@H](OCCC(F)(F)F)CN2C(=O)[C@H](CCc2cc(F)c(C(F)(F)F)c(F)c2)NC(=O)CN(C)C(=O)[C@H](Cc2ccc(C(F)(F)F)cc2)N2CCCC[C@@H](C2=O)N(C)C(=O)CN(C)C1=O (stereo in doubt) [PP0998] | B (a compound having 3 or more and less than 10 is denoted as B) | B (a compound having 3 or more and less than 10 is denoted as B) |  |
| CCO[C@@H]1C[C@H]2C(=O)NC3(CCC3)C(=O)N(C)[C@@H](C3CCCC3)C(=O)N(C)[C@H](C(=O)N(C)CC)CC(=O)N(C)[C@H]3CCCCCc4ccc(cc4)C[C@@H](C(=O)N(C)CC(=O)N[C@@H](CCc4cc(F)c(C(F)(F)F)c(F)c4)C(=O)N2C1)N1CC/C=C\C[C@@H](C1=O)N(C)C(=O)CN(C)C(=O)[C@H]([C@@H](C)CC)NC3=O (stereo in doubt) [PP2117] | A (a compound having 10 or more and less than 20 is denoted as A) | A (a compound having 10 or more and less than 20 is denoted as A) |  |
| CCOC[C@H]1C(=O)N[C@@H]([C@@H](C)CC)C(=O)N(C)CC(=O)N(C)[C@H]2C/C=C\CCN(C2=O)[C@@H](Cc2ccc(CC)cc2)C(=O)N(C)CC(=O)N[C@@H](CCc2ccc(C(F)(F)F)c(OC)c2)C(=O)N2C[C@@H](C)C[C@H]2C(=O)NC2(CC(C)(C)C2)C(=O)N(C)[C@@H](C2CCCC2)C(=O)N(C)[C@H](C(=O)N(C)CC)CC(=O)N1C (stereo in doubt) [PP2696] |  |  | NRAS/KRAS (ratio of KD value with respect to GDP-bound NRAS wild-type protein to KD value with respect to KRAS) ([1]; SPR KD ratio NRAS/KRAS, class symbols): A (a compound having 10 or more and less than 20 is denoted as A); HRAS/KRAS (ratio of KD value with respect to GDP-bound HRAS wild-type protein to KD value with respect to KRAS) ([2]; SPR KD ratio HRAS/KRAS, class symbols): B (a compound having 3 or more and less than 10 is denoted as B) |
| CCCCN1C(=O)[C@@H]2CCN2C(=O)[C@H](C)N(C)C(=O)[C@H]([C@@H](C)CC)NC(=O)[C@H](CC(C)C)N(C)C(=O)C[C@@H](C(=O)N2CCOCC2)N(C)C(=O)[C@H](C2CCCC2)N(C)C(=O)C2(CCCC2)NC(=O)[C@@H]2CCCN2C(=O)[C@H](CCc2ccc(C(F)(F)F)c(Cl)c2)NC(=O)CN(C)C(=O)[C@@H]1Cc1ccc(C)cc1 [PP0055] ([NMeL]I[NMeA][Aze][X46][Sar][hPhe(3-Cl-4-CF3)]P[Ac5c][NMeGly(cPent)][NMeD]-Morpholide; lactam N-11) | C (A compound having a KD ratio of 0.1 or more and less than 3 is denoted as C) | C (A compound having a KD ratio of 0.1 or more and less than 3 is denoted as C) |  |
| CC[C@H](C)[C@@H]1NC(=O)[C@H](CC(C)C)N(C)C(=O)C[C@@H](C(=O)N2CCOCC2)N(C)C(=O)[C@H](C2CCCC2)N(C)C(=O)C2(CCCC2)NC(=O)[C@@H]2C[C@@H](OC3CCCCO3)CN2C(=O)[C@H](CCc2ccc(C(F)(F)F)c(Cl)c2)NC(=O)CN(C)C(=O)[C@H](Cc2ccc(C)cc2)N(CC)C(=O)[C@@H]2CCN2C(=O)[C@H](C)N(C)C1=O (stereo partly shown) [PP0067] ([NMeL]I[NMeA][Aze][NEtPhe(4-Me)][Sar][hPhe(3-Cl-4-CF3)][Hyp](X51)[Ac5c][NMeGly(cPent)][NMeD]-Morpholide; lactam N-11) | C (A compound having a KD ratio of 0.1 or more and less than 3 is denoted as C) | C (A compound having a KD ratio of 0.1 or more and less than 3 is denoted as C) |  |
| CC[C@H](C)[C@@H]1NC(=O)[C@H](CC(C)C)N(C)C(=O)C[C@@H](C(=O)N2CCOCC2)N(C)C(=O)[C@H](C2CCCC2)N(C)C(=O)C2(CCCC2)NC(=O)[C@@H]2C[C@@H](OC3CCCCO3)CN2C(=O)[C@H](CCc2ccc(C(F)(F)F)c(Cl)c2)NC(=O)CN(C)C(=O)[C@H](Cc2ccc(C)cc2)N(CC)C(=O)CN(C)C(=O)CN(C)C1=O (stereo partly shown) [PP0068] ([NMeL]I[Sar][Sar][NEtPhe(4-Me)][Sar][hPhe(3-Cl-4-CF3)][Hyp](X51)[Ac5c][NMeGly(cPent)][NMeD]-Morpholide; lactam N-11) | C (A compound having a KD ratio of 0.1 or more and less than 3 is denoted as C) | C (A compound having a KD ratio of 0.1 or more and less than 3 is denoted as C) |  |
| CC[C@H](C)[C@@H]1NC(=O)[C@H](CC(C)C)N(C)C(=O)C[C@@H](C(=O)N2CCOCC2)N(C)C(=O)[C@H](C2CCCC2)N(C)C(=O)C2(CCCC2)NC(=O)[C@@H]2CCCN2C(=O)[C@H](CCc2ccc(C(F)(F)F)c(Cl)c2)NC(=O)CN(C)C(=O)[C@H](Cc2ccc(C(F)(F)F)cc2)N(CCC(C)(C)C)C(=O)CN(C)C(=O)CN(C)C1=O [PP0127] ([NMeL]I[Sar][Sar][X47][Sar][hPhe(3-Cl-4-CF3)]P[Ac5c][NMeGly(cPent)][NMeD]-Morpholide; lactam N-11) | C (A compound having a KD ratio of 0.1 or more and less than 3 is denoted as C) | C (A compound having a KD ratio of 0.1 or more and less than 3 is denoted as C) |  |
| CCCN1C(=O)[C@@H]2CCN2C(=O)[C@H](C)N(C)C(=O)[C@H]([C@@H](C)CC)NC(=O)[C@H](CC(C)C)N(C)C(=O)C[C@@H](C(=O)N2C3CCC2COC3)N(C)C(=O)[C@H](C2CCCC2)N(C)C(=O)C2(CCCC2)NC(=O)[C@@H]2CCCN2C(=O)[C@H](CCc2ccc(C(F)(F)F)c(Cl)c2)NC(=O)CN(C)C(=O)[C@@H]1Cc1ccc(C(F)(F)F)cc1 [PP0182] ([NMeL]I[NMeA][Aze][NPrPhe(4-CF3)][Sar][hPhe(3-Cl-4-CF3)]P[Ac5c][NMeGly(cPent)][NMeD]-{3Oxa8azabicyclo(3.2.1)octane}; lactam N-11) | C (A compound having a KD ratio of 0.1 or more and less than 3 is denoted as C) | B (a compound having 3 or more and less than 10 is denoted as B) |  |
| CCO[C@@H]1C[C@H]2C(=O)NC3(CCC3)C(=O)N(C)[C@@H](C3CCCC3)C(=O)N(C)[C@H](C(=O)N(C)C)CC(=O)N(C)[C@@H](CC(C)C)C(=O)N[C@@H]([C@@H](C)CC)C(=O)N(C)CC(=O)N(C)[C@H]3CCCCCN(C3=O)[C@@H](Cc3ccc(C(F)(F)F)cc3)C(=O)N(C)CC(=O)N[C@@H](CCc3cc(F)c(C(F)(F)F)c(F)c3)C(=O)N2C1 [PP0469] |  |  | NRAS/KRAS (ratio of KD value with respect to NRAS to KD value with respect to KRAS) [1]: B (a compound having 3 or more and less than 10 is denoted as B); HRAS/KRAS (ratio of KD value with respect to HRAS to KD value with respect to KRAS) [2]: B (a compound having 3 or more and less than 10 is denoted as B) |
| CC[C@H](C)[C@@H]1NC(=O)[C@H](CC(C)C)N(C)C(=O)C[C@@H](C(=O)N2CCOCC2)N(C)C(=O)[C@H](C2CCCC2)N(C)C(=O)[C@](C)(CC)NC(=O)[C@@H]2CCCN2C(=O)[C@H](CCc2cc(F)c(C(F)(F)F)c(F)c2)NC(=O)CN(C)C(=O)[C@H](Cc2ccc(C(F)(F)F)cc2)N2CCCCC[C@@H](C2=O)N(C)C(=O)CN(C)C1=O [PP0500] |  |  | NRAS/KRAS (ratio of KD value with respect to NRAS to KD value with respect to KRAS) [1]: B (a compound having 3 or more and less than 10 is denoted as B); HRAS/KRAS (ratio of KD value with respect to HRAS to KD value with respect to KRAS) [2]: B (a compound having 3 or more and less than 10 is denoted as B) |
